From the NIST ThermoML archive (doi:10.1016/j.fluid.2005.06.019)
Numbers after ± are expanded uncertainties.

Legend:
[1] = Liquid; for mass density: 101.33 kPa
[2] = refractive index (Na D-line) (dimensionless); conditions: 298.15 K; 101.33 kPa; Liquid; Standard Abbe refractometry

CC(=O)OCC(C)C [2-methylpropyl ethanoate]
[1]
Conditions | mass density [kg/m3] | vapor or sublimation pressure [kPa]
293.15 K | 866.12 ± 0.62 | –
389.9 K | – | 101.3 ± 0.3

Conditions | refractive index
[2] | 1.3876 ± 0.0008

CC(C)CO [2-methyl-1-propanol]
[1]
Conditions | mass density [kg/m3] | vapor or sublimation pressure [kPa]
298.15 K | 797.83 ± 0.61 | –
381.09 K | – | 101.3 ± 0.3

Conditions | refractive index
[2] | 1.3937 ± 0.0007

CCCCCCO [hexan-1-ol]
[1]
Conditions | mass density [kg/m3] | vapor or sublimation pressure [kPa]
298.15 K | 814.85 ± 0.68 | –
356.39 K | – | 5 ± 0.2
364.42 K | – | 7.5 ± 0.2
368.04 K | – | 8.9 ± 0.3
372.23 K | – | 10.9 ± 0.3
376.68 K | – | 13.4 ± 0.4
379.61 K | – | 15.3 ± 0.4
384.92 K | – | 19.3 ± 0.5
384.93 K | – | 19.3 ± 0.5
390.31 K | – | 24.2 ± 0.5
394.34 K | – | 28.5 ± 0.6
398.14 K | – | 33.1 ± 0.7
401.57 K | – | 37.8 ± 0.8
404.56 K | – | 42.3 ± 0.8
407.43 K | – | 47.1 ± 0.9
410.27 K | – | 52.2 ± 1
412.75 K | – | 57 ± 1
414.93 K | – | 61.5 ± 1.1
417.18 K | – | 66.4 ± 1.2
417.28 K | – | 66.7 ± 1.2
419.52 K | – | 71.9 ± 1.2
421.96 K | – | 78 ± 1.3
424.54 K | – | 84.8 ± 1.4
426.31 K | – | 89.8 ± 1.5
428.2 K | – | 95.3 ± 1.5
429.97 K | – | 100.8 ± 1.6
430 K | – | 101.5 ± 1.8
430.06 K | – | 101.3 ± 1.6
430.26 K | – | 101.7 ± 1.6

Conditions | refractive index
[2] | 1.4162 ± 0.0008
